Earlier results as cited in EP0114993B1, “Renin inhibitory tripeptides” (Merck & Co., Inc., priority 1982, dated 1990).

Tested on: hog renin
Conditions: after the injection of hog renin into nephrectomized rats; Gross et al., Science 175:656, 1971

pepstatin
blood pressure in vivo: reduce blood pressure
